Reference: US11485742B2, “2-azaspiro[3.4]octane derivatives as M4 agonists” (NOVARTIS AG, priority 2019, dated 2022)

Columns and labels:
[1] = target: T1, human cloned CHRM4 receptor (Homo sapiens, UniProt P08173); experiment: CHRM4 Ca++ Flux Assay (M4_CHO cells, agonist mode); assay type: cell-based; conditions: for Emax / M4 FDSS PA %: Percent Activity (PA); for Emax: read-out: M4 FDSS PA %; for EC50: geometric mean if tested more than once, read-out: M4 FDSS EC50
T1 construct: expressed in transfected cells; host or cells: CHO-K1 (M4_CHO)
T1 sequence (P08173 1-479): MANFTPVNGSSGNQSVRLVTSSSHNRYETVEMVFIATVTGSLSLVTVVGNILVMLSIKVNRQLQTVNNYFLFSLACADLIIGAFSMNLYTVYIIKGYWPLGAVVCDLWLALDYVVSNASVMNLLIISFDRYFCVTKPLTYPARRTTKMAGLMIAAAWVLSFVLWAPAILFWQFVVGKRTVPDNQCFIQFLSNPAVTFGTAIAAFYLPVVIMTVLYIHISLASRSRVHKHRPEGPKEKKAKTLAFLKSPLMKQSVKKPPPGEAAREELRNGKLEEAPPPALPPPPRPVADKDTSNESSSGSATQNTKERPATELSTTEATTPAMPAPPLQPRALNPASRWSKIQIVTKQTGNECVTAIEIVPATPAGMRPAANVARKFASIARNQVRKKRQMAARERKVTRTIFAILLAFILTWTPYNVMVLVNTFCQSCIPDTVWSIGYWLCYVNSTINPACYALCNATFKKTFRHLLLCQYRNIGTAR
Protocol: (§1) The above examples were characterized by measuring the intracellular mobilization of Ca^++ ions caused by signaling events mediated by the receptor. The Intra-cellular Calcium flux levels were captured by the highly sensitive Ca^++ indicator, Calcium Assay Kit (BD Biosciences; Catalog Number 640178. The fluorescent activity from all receptors were monitored by the fluorescent imager, FDSS 7000EX (Hamamatsu) over a span of 3 minutes. The change in Calcium flux was readily captured upon activation with the muscarinic orthosteric agonist, Carbachol.
CHO-K1 cells stably expressing the human cloned CHRM4 receptor (M4_CHO cells) were grown and maintained in a monolayer culture with F12/HAM (Life Technologies) supplemented with 10% Fetal Bovine Serum, 1X Pen-Strep, and 0.4 mg/mL Geneticin in a humidified atmosphere (5% CO2) at 37° C. The cultures were grown to 80-90% confluency in T150 flasks (Corning) and washed with 1×DPBS then lifted with 0.05% Trypsin (Life Technologies). The cells were harvested in growth media then spun (1K rpm, 3 minutes) and cryopreserved using Recovery Cell Culture Freezing Media (Gibco Technologies). Cells were stored in liquid nitrogen and thawed a day before the assay.
Prior to the day of the assay, stable M4_CHO cells were thawed and plated on 384 well black walled clear bottom TC treated plates (Greiner Cat #781091) at 12K cells/well using F12/HAM Media supplemented with 10% FBS (Life Technologies) and kept overnight in a humidified atmosphere (5% CO2) at 37° C. The next day, cells were loaded with 20 μL Ca^++ dye (BD Biosciences) using Loading Buffer (HBSS +Ca/+Mg, 20 mM HEPES, 2.5 mM Probenecid) and placed back in cell incubator for a minimum of 1 hour. After incubation, the dye was replaced with 45 μL Assay Buffer (HBSS −Ca/−Mg, 20 mM HEPES, 2.5 mM Probenecid) supplemented with 20 μM ATP (Sigma Aldrich) and kept at room temperature in the dark for 60 minutes before running on a cell imager. The FDSS 7000EX (Hamamatsu) was used to capture Ca^++ traces for a span of 3 minutes from cells treated with 11 point dose of compound in triplicate in order to generate dose response curves in agonist mode. All compounds were serially diluted in DMSO then prepared in Assay Buffer for Ca^++ flux studies. The dose response curves were generated from the average of triplicate wells obtained from each data point and used a non-linear regression of four parameter dose response algorithm. The Percent Activity (PA) was measured to EC100 of Carbachol.
(§2) If an Example was tested more than once in an assay, then the values below represent the geometric mean of the results from each independent experiment.

[2] = target: T2, human cloned CHRM3 receptor (Homo sapiens, UniProt P20309); experiment: CHRM3 Ca++ Flux Assay (M3_CHO cells, agonist mode); assay type: cell-based; conditions: for Emax / M3 FDSS PA %: Percent Activity (PA) measured to EC100 of Carbachol; for Emax: read-out: M3 FDSS PA %; for EC50: agonist mode, geometric mean if tested more than once, read-out: M3 FDSS EC50
T2 construct: expressed in transfected cells; host or cells: CHO-K1 (M3_CHO)
Protocol: as §1
CHO-K1 cells stably expressing the human cloned CHRM3 receptor (M3_CHO cells) were grown and maintained in a monolayer culture with F12/HAM (Life Technologies) supplemented with 10% Fetal Bovine Serum, IX Pen-Strep, and 0.4 mg/mL Geneticin in a humidified atmosphere (5% CO2) at 37° C. The cultures were grown to 80-90% confluency in T150 flasks (Corning) and washed with 1×DPBS and lifted with 0.05% Trypsin (Life Technologies). The cells were then spun (1K rpm, 3 minutes) and frozen using Recovery Cell Culture Freezing Media (Gibco Technologies). Cells were stored in liquid nitrogen and thawed a day before the assay. A similar procedure was used for cells stably expressing the human cloned CHRM5 receptor (M5_CHO).
Prior to the day of the assay, stable M3_CHO or M5_CHO cells were thawed and plated on Greiner 384 well black TC treated plates at 12K cells/well in F12/DMEM supplemented with 10% FBS (Hyclone) and kept overnight in a humidified atmosphere (5% CO2) at 37° C. The next day, cells were loaded with Ca^++ dye (BD Biosciences) using Loading Buffer (HBSS +Ca/+Mg, 20 mM HEPES, 2.5 mM Probenecid) and placed back in cell incubator for a minimum of 1 hour. After incubation, the dye was replaced with Assay Buffer (HBSS −Ca/−Mg, 20 mM HEPES, 2.5 mM Probenecid) and kept at room temperature in the dark before running on cell imager. The FDSS 7000EX (Hamamatsu) was used to acquire Ca^+− traces from cells treated with 11 point dose response of compounds in triplicate in order to generate dose response curves in agonist mode. All compounds were serially diluted in DMSO then prepared in Assay Buffer for Ca^++ flux studies. The dose response curves were generated from the average of triplicate wells obtained from each data point and used a non-linear regression of four parameter dose response algorithm. The Percent Activity (PA) was measured to EC100 of Carbachol.
as §2

T2 sequence (P20309 whole entry): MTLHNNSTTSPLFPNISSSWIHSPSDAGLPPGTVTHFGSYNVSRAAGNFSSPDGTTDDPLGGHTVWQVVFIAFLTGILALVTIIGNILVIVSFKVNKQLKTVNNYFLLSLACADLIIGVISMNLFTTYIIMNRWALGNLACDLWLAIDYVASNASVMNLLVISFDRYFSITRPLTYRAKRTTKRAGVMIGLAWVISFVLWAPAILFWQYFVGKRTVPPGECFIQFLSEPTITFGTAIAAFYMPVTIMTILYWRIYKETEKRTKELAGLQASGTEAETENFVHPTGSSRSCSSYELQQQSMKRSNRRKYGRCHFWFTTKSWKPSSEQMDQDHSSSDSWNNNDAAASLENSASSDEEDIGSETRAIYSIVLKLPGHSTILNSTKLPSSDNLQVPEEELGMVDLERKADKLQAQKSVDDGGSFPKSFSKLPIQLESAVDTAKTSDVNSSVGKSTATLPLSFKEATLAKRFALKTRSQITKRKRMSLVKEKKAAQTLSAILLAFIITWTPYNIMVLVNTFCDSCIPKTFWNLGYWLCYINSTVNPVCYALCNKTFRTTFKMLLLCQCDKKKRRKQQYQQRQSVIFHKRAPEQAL

Emax [1] [%]	EC50 [1] [µM]	Emax [2] [%]	EC50 [2] [µM]	M4 FDSS PA % [1] [%]	M3 FDSS PA % [2] [%]	Structure (SMILES)
90	< 0.0004	15	11.8			Cc1nc(COc2ccccc2C2CCN([C@@H]3COC4(C3)CN(c3nncs3)C4)CC2)no1 [Example 5F, (S)-7-(4-(2-((5-methyl-1,2,4-oxadiazol-3-yl)methoxy)phenyl)piperidin-1-yl)-2-(1,3,4-thiadiazol-2-yl)-5-oxa-2-azaspiro[3.4]octane]
68	0.017	0	> 25			Fc1ccc(OC2CC3(COC3)C2)c(C2CCN([C@@H]3COC4(C3)CN(c3ncco3)C4)CC2)c1 [Example 4G, (S)-7-(4-(2-((2-oxaspiro[3.3]heptan-6-yl)oxy)-5-fluorophenyl)piperidin-1-yl)-2-(oxazol-2-yl)-5-oxa-2-azaspiro[3.4]octane]
77	0.004	0	> 25			Fc1ccc(OC[C@H]2COCCO2)c(C2CCN([C@@H]3COC4(C3)CN(c3ncco3)C4)CC2)c1 [Example 4B, (S)-7-(4-(2-(((R)-1,4-dioxan-2-yl)methoxy)-5-fluorophenyl)piperidin-1-yl)-2-(oxazol-2-yl)-5-oxa-2-azaspiro[3.4]octane]
80	0.015	0	> 25			c1ccc(C2CCN([C@@H]3COC4(C3)CN(c3ncco3)C4)CC2)c(O[C@@H]2CCOC2)c1 [Example 4F, (S)-2-(oxazol-2-yl)-7-(4-(2-(((R)-tetrahydrofuran-3-yl)oxy)phenyl)piperidin-1-yl)-5-oxa-2-azaspiro[3.4]octane]
82	0.046	0	> 25			c1ccc(C2CCN([C@@H]3COC4(C3)CN(c3ncco3)C4)CC2)c(C2CCOCC2)c1 [Example 4V, (S)-2-(oxazol-2-yl)-7-(4-(2-(tetrahydro-2H-pyran-4-yl)phenyl)piperidin-1-yl)-5-oxa-2-azaspiro[3.4]octane]

Second part, the compound before the results:

Structure (SMILES)	Emax [1] [%]	EC50 [1] [µM]	Emax [2] [%]	EC50 [2] [µM]	M4 FDSS PA % [1] [%]	M3 FDSS PA % [2] [%]
CC1(C)C[C@@H](Oc2ccc(F)cc2C2CCN([C@@H]3COC4(C3)CN(c3nnco3)C4)CC2)CO1 (single isomer, unassigned) [Example 2O, (S)-7-(4-(2-(((R)-5,5-dimethyltetrahydrofuran-3-yl)oxy)-5-fluorophenyl)piperidin-1-yl)-2-(1,3,4-oxadiazol-2-yl)-5-oxa-2-azaspiro[3.4]octane or (S)-7-(4-(2-(((S)-5,5-dimethyltetrahydrofuran-3-yl)oxy)-5-fluorophenyl)piperidin-1-yl)-2-(1,3,4-oxadiazol-2-yl)-5-oxa-2-azaspiro[3.4]octane]		0.051		> 25	86	0
c1ccc([C@@H]2CCOC2)c(C2CCN([C@@H]3COC4(C3)CN(c3nnco3)C4)CC2)c1 (single isomer, unassigned) [Example 3B, (S)-2-(1,3,4-oxadiazol-2-yl)-7-(4-(2-((S)-tetrahydrofuran-3-yl)phenyl)piperidin-1-yl)-5-oxa-2-azaspiro[3.4]octane or (S)-2-(1,3,4-oxadiazol-2-yl)-7-(4-(2-((R)-tetrahydrofuran-3-yl)phenyl)piperidin-1-yl)-5-oxa-2-azaspiro[3.4]octane]		0.069		> 25	86	0
O[C@H]1CC[C@@H](c2ccc(F)cc2C2CCN([C@@H]3COC4(C3)CN(c3nnco3)C4)CC2)CC1 (single isomer, unassigned) [Example 3H, (1R,4s)-4-(2-(1-((S)-2-(1,3,4-oxadiazol-2-yl)-5-oxa-2-azaspiro[3.4]octan-7-yl)piperidin-4-yl)-4-fluorophenyl)cyclohexan-1-ol or (1S,4r)-4-(2-(1-((S)-2-(1,3,4-oxadiazol-2-yl)-5-oxa-2-azaspiro[3.4]octan-7-yl)piperidin-4-yl)-4-fluorophenyl)cyclohexan-1-ol]		0.01		10.7	83.2	20
Fc1ccc(OC[C@@H]2COCCO2)c(C2CCN([C@@H]3COC4(C3)CN(c3nnco3)C4)CC2)c1 [Example 1F, (S)-7-(4-(2-(((S)-1,4-dioxan-2-yl)methoxy)-5-fluorophenyl)piperidin-1-yl)-2-(1,3,4-oxadiazol-2-yl)-5-oxa-2-azaspiro[3.4]octane]	78	0.03	0	> 25		
Fc1cc(F)c(OC2CCOCC2)c(C2CCN([C@@H]3COC4(C3)CN(c3nnco3)C4)CC2)c1 [Example 2BB, (S)-7-(4-(3,5-difluoro-2-((tetrahydro-2H-pyran-4-yl)oxy)phenyl)piperidin-1-yl)-2-(1,3,4-oxadiazol-2-yl)-5-oxa-2-azaspiro[3.4]octane]	91	0.946	0	> 25		
c1ccc(C2CCN([C@@H]3COC4(C3)CN(c3nnco3)C4)CC2)c(C2CCOCC2)c1 [Example 3C, (S)-2-(1,3,4-oxadiazol-2-yl)-7-(4-(2-(tetrahydro-2H-pyran-4-yl)phenyl)piperidin-1-yl)-5-oxa-2-azaspiro[3.4]octane]	85	0.184	0	> 25		
C[C@H](Oc1ccc(F)cc1C1CCN([C@@H]2COC3(C2)CN(c2nnco2)C3)CC1)C1CCOCC1 (single isomer, unassigned) [Example 2Y, (S)-7-(4-(5-fluoro-2-((S)-1-(tetrahydro-2H-pyran-4-yl)ethoxy)phenyl)piperidin-1-yl)-2-(1,3,4-oxadiazol-2-yl)-5-oxa-2-azaspiro[3.4]octane or (S)-7-(4-(5-fluoro-2-((R)-1-(tetrahydro-2H-pyran-4-yl)ethoxy)phenyl)piperidin-1-yl)-2-(1,3,4-oxadiazol-2-yl)-5-oxa-2-azaspiro[3.4]octane]		0.554		> 25	76	0
